This note sets out measurements from PubChem BioAssay (NCI).

SMILES strings stand for the structures.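 Method: 48-hour compound exposure of cells in 96-well plates, five concentrations, linear interpolation of endpoints. TGI is the concentration that stops growth completely.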

Some test systems named below: SK-MEL-5 melanoma; BT-549 breast; UO-31 renal; KM12 colon; PC-3 prostate; HS 578T breast; MDA-MB-231 breast; UACC-257 melanoma; HCT-116 colon; ACHN renal; A498 renal; A549 NSCLC; M14 melanoma; SK-OV-3 ovarian; EKVX NSCLC; OVCAR-4 ovarian; OVCAR-8 ovarian; DU-145 prostate; RPMI-8226 leukemia; RXF 393 renal.
Assay in all cases: growth of human tumour cells (NCI), 48 h

For `CC(C)(CC#N)c1cc(CC(C)(C)c2cc(CC(C)(C)c3cc(C(C)(C)C4(C)OCCO4)no3)no2)no1`, the TGI is greater than 100 µM with SK-MEL-5 melanoma; greater than 100 µM in the experiment with BT-549 breast; greater than 100 µM in the experiment with UO-31 renal; greater than 100 µM in the experiment on KM12 colon; greater than 100 µM with PC-3 prostate; 88.7 µM with HS 578T breast. Further, the TGI in the experiment on MDA-MB-231 breast is 99.7 µM; with UACC-257 melanoma, greater than 100 µM; with HCT-116 colon, greater than 100 µM; with ACHN renal it was greater than 100 µM; in the experiment on A498 renal it was greater than 100 µM; in the experiment on A549 NSCLC it was greater than 100 µM. Besides, the TGI was greater than 100 µM in the experiment on M14 melanoma; greater than 100 µM in the experiment on SK-OV-3 ovarian; greater than 100 µM in the experiment on EKVX NSCLC; 91 µM in the experiment with OVCAR-4 ovarian; greater than 100 µM in the experiment on OVCAR-8 ovarian; greater than 100 µM in the experiment with DU-145 prostate. Further, the TGI with RPMI-8226 leukemia is greater than 100 µM; with RXF 393 renal, 41.3 µM.
As to `O=c1oc2ccccc2c(O)c1C(c1ccc2c(c1)Cc1ccccc1-2)c1c(O)c2ccccc2oc1=O`, the TGI in the experiment with SK-MEL-5 melanoma was 39.9 µM; in the experiment with BT-549 breast it was 53.6 µM; in the experiment on UO-31 renal, 33.1 µM; in the experiment on KM12 colon, 49.1 µM; in the experiment with PC-3 prostate, greater than 100 µM; in the experiment with HS 578T breast it was 86.3 µM. Moreover, the TGI in the experiment with MDA-MB-231 breast was 57.9 µM; in the experiment with UACC-257 melanoma it was greater than 100 µM; with HCT-116 colon, greater than 100 µM; in the experiment with ACHN renal, 45.6 µM; in the experiment with A498 renal, greater than 100 µM; in the experiment with A549 NSCLC it was 44.4 µM. The TGI in the experiment on M14 melanoma was 41 µM; in the experiment with SK-OV-3 ovarian it was 90.8 µM; in the experiment with EKVX NSCLC, greater than 100 µM; in the experiment with OVCAR-4 ovarian it was greater than 100 µM; with OVCAR-8 ovarian it was greater than 100 µM; with DU-145 prostate, greater than 100 µM. The TGI with RPMI-8226 leukemia was greater than 100 µM; in the experiment with RXF 393 renal, 35.5 µM.
As to `S=C1N=C(Cl)/C(=C\c2ccco2)N1`, the TGI in the experiment with SK-MEL-5 melanoma, with BT-549 breast, in the experiment on UO-31 renal, with KM12 colon, in the experiment with PC-3 prostate and with HS 578T breast was greater than 100 µM each time. For the same compound, the TGI with MDA-MB-231 breast, with UACC-257 melanoma, in the experiment with HCT-116 colon, in the experiment on ACHN renal, in the experiment on A498 renal and in the experiment on A549 NSCLC was greater than 100 µM each time. Moreover, the TGI in the experiment on M14 melanoma, in the experiment on SK-OV-3 ovarian, with EKVX NSCLC, in the experiment on OVCAR-4 ovarian, in the experiment with OVCAR-8 ovarian and in the experiment with DU-145 prostate was greater than 100 µM throughout. Besides, the TGI in the experiment on RPMI-8226 leukemia and in the experiment on RXF 393 renal was greater than 100 µM throughout.
With `COc1cc2c(c(OC)c1OC)C(=O)[C@H](Br)[C@H]2NC(=O)NCCCl`, the TGI in the experiment on SK-MEL-5 melanoma, in the experiment with BT-549 breast, in the experiment with UO-31 renal, in the experiment on KM12 colon, in the experiment on PC-3 prostate and with HS 578T breast was greater than 100 µM each time. Besides, the TGI with MDA-MB-231 breast, in the experiment on UACC-257 melanoma, with HCT-116 colon, in the experiment with ACHN renal, with A498 renal and with A549 NSCLC was greater than 100 µM each time. Moreover, the TGI in the experiment on M14 melanoma, in the experiment with SK-OV-3 ovarian, with EKVX NSCLC, in the experiment with OVCAR-4 ovarian, in the experiment on OVCAR-8 ovarian and with DU-145 prostate was greater than 100 µM each time. Also, the TGI in the experiment on RPMI-8226 leukemia and with RXF 393 renal was greater than 100 µM throughout.
Consider `O=C(O)C1(Cc2ccc3c(c2)CCC3)Cc2ccccc2C1=O` (stereo not given), for which the TGI in the experiment with SK-MEL-5 melanoma, in the experiment on BT-549 breast, in the experiment with UO-31 renal, in the experiment with KM12 colon, in the experiment with PC-3 prostate and in the experiment on HS 578T breast was greater than 100 µM throughout. Moreover, the TGI in the experiment with MDA-MB-231 breast, with UACC-257 melanoma, with HCT-116 colon, with ACHN renal, in the experiment with A498 renal and with A549 NSCLC was greater than 100 µM each time. The TGI with M14 melanoma, with SK-OV-3 ovarian, with EKVX NSCLC, in the experiment with OVCAR-4 ovarian, with OVCAR-8 ovarian and in the experiment with DU-145 prostate was greater than 100 µM throughout. Besides, the TGI in the experiment on RPMI-8226 leukemia was 92.2 µM; in the experiment with RXF 393 renal, greater than 100 µM.
In the case of `CC1(C)CCC[C@@]2(C)C1C(=O)[C@@H]1O[C@]1(C)[C@@H]2CO` (stereo not given in full), the TGI is greater than 100 µM in the experiment on SK-MEL-5 melanoma; 43.6 µM in the experiment on BT-549 breast; greater than 100 µM in the experiment with UO-31 renal; greater than 100 µM in the experiment with KM12 colon; greater than 100 µM with PC-3 prostate; greater than 100 µM with HS 578T breast. For the same compound, the TGI in the experiment with MDA-MB-231 breast, in the experiment on UACC-257 melanoma, in the experiment on HCT-116 colon, with ACHN renal, with A498 renal and in the experiment on A549 NSCLC was greater than 100 µM in each case. Further, the TGI in the experiment with M14 melanoma, with SK-OV-3 ovarian, in the experiment on EKVX NSCLC, in the experiment on OVCAR-4 ovarian, with OVCAR-8 ovarian and in the experiment with DU-145 prostate was greater than 100 µM in each case. Further, the TGI in the experiment on RPMI-8226 leukemia worked out at 53.4 µM; in the experiment on RXF 393 renal, 75.6 µM.
As for `C[S+](C)CC(=O)c1ccc2c(c1)Sc1ccccc1O2`, the TGI with SK-MEL-5 melanoma came out at 2.92 µM; with BT-549 breast it was 6.17 µM; in the experiment on UO-31 renal, 12 µM; in the experiment on KM12 colon, 2.87 µM; with PC-3 prostate it was 4.03 µM; with HS 578T breast it was 22.1 µM. For the same compound, the TGI worked out at 18.7 µM with MDA-MB-231 breast; 18.2 µM in the experiment on UACC-257 melanoma; 7.32 µM with HCT-116 colon; 16.1 µM in the experiment with ACHN renal; 26.9 µM in the experiment on A498 renal; 18.1 µM in the experiment on A549 NSCLC. Besides, the TGI in the experiment with M14 melanoma was 3.48 µM; in the experiment with SK-OV-3 ovarian it was 19.6 µM; in the experiment with EKVX NSCLC it was 14.4 µM; in the experiment with OVCAR-4 ovarian it was 15.4 µM; with OVCAR-8 ovarian it was 13.6 µM; in the experiment with DU-145 prostate, 11 µM. Further, the TGI in the experiment with RPMI-8226 leukemia was greater than 39.2 µM; in the experiment with RXF 393 renal, 9.23 µM.
